What was measured:
unwounded mouse ears = experiment: Unwounded mouse ears, whole mount imaging of lymphatic vessels; format: in vivo, mice; settings: tacrolimus applied to unwounded ears for 4 weeks
From the text: We also studied lymphangiogenesis during wound healing using an ear punch wound model and applying topical tacrolimus or control ointment for 4 weeks. […] To test the possibility of direct lymphangiogenic effects of tacrolimus, we applied tacrolimus to unwounded mouse ears for 4 weeks, and then performed whole mount confocal imaging of lymphatic vessels. We observed no increase in lymphangiogenesis in this uninjured, non-inflamed setting (FIG. 16).

[1] = reference range; cited from earlier work
[2] = system: popliteal lymph node dissection (PLND) mouse model; experiment: Popliteal lymph node dissection (PLND) hind limb model of lymphatic injury; settings: 4 weeks after PLND
From the text: To enable analysis of the lymphatic collecting vessel pumping capacity we utilized a previously described mouse popliteal lymphadenectomy model. […] Briefly, the hind limb collecting vessels and popliteal lymph nodes were identified and the lymph nodes were excised with the popliteal fat pad. Beginning 2 weeks after surgery, animals were randomized to treatment with either 0.1% topical tacrolimus or vehicle control (petroleum jelly) twice daily for 2 weeks.
Near infrared imaging (NIR) was performed using a modification of previously published results. […] Briefly, 15 μl (0.15 mg mL^−1) indocyanine green (ICG, Sigma-Aldrich, Saint Louis, Mo.) was injected intradermally in the web space of the dorsal hind limb and visualized using an EVOS EMCCD camera (Life Technologies, Carlsbad, Calif.) with a LED light source (CoolLED, Andover, United Kingdom). Static/video images were obtained using a Zeiss V12 Stereolumar microscope (Caliper Life Sciences, Hopkinton, Mass.) and lymphatic pumping function was analyzed using Fiji software (NIH, Bethesda, Md.) by identifying a region-of-interest over the dominant collecting vessel of the leg and subtracting the background fluorescent intensity plotted over time.
Immunohistochemical staining was performed using our published methods. […] Briefly, tissues were fixed in 4% paraformaldehyde at 4° C., decalcified in 5% sodium EDTA (Santa Cruz Biotechnology, Dallas, Tex.), embedded in paraffin, and sectioned at 5 micrometers. Cut sections were rehydrated and heat-mediated antigen unmasking was performed using 90° C. sodium citrate (Sigma-Aldrich). Non-specific binding was blocked with 2% BSA/20% animal serum. Tissues were incubated overnight with primary antibody at 4° C. Primary antibodies used for immunohistochemical stains included goat anti-mouse LYVE-1, rat anti-mouse CD45, rabbit anti-mouse CD4, and rat anti-mouse F4/80 (all from R&D, Minneapolis, Minn.), rabbit anti-mouse CD3 (from Dako, Carpinteria, Calif.), Cy3-conjugated mouse anti-αSMA (from Sigma-Aldrich), rabbit anti-human IFN-γ, rabbit anti-mouse TGF-β1, rabbit anti-mouse p-SMAD3, rabbit anti-mouse collagen I, rabbit-anti-mouse iNOS, and hamster-anti-mouse podoplanin, rabbit anti-mouse HMGB-1 and HSP-70 (all from ABCAM, Cambridge, Mass.).
Immunofluorescence staining was performed using AlexaFluor fluorophore-conjugated secondary antibodies (Life Technologies, Norwalk, Conn.). Images were scanned using Mirax imaging software (Carl Zeiss).

[3] = system: hind limb collecting lymphatics of non-operated animals; experiment: Non-operated (sham) hind limb, NIR lymphatic imaging; format: in vivo, mice; settings: tacrolimus, non-operated animals (anesthesia only, no surgery)
From the text: Upper panels are representative images of NIR lymphatic images of the hind limb lymphatics in sham operated mice (i.e., anesthesia without incision or PLND) following treatment with control or topical tacrolimus for 2 weeks. Quantification of collecting lymphatic vessel pulsation frequency following 3 or 14 days of treatment with tacrolimus is shown below.
This is important since previous studies have shown that perilymphatic iNOS expression is an important regulator of collecting lymphatic pumping capacity. Liao et al., Proc. Natl. Acad. Sci. USA 108:18784-18789 (2011).

[4] = system: corneal lymphatic and blood vessels; experiment: Corneal lymphangiogenesis assay (suture placement); format: in vivo, mice; settings: systemic tacrolimus 4 mg kg^−1 IP daily for 2 weeks after suture placement, vs vehicle
From the text: To determine the lymphangiogenic effects of tacrolimus in other inflammatory and wound models in which drainage of lymphatic fluid is not obstructed surgically, we next used two other models of inflammatory lymphangiogenesis. The cornea is a useful tissue for studying lymphangiogenesis because it is normally devoid of both blood and lymphatic vessels but develops both in the setting of inflammation. Cursiefen et al., J. Clin. Invest. 113:1040-1050 (2004). […] A corneal lymphangiogenesis assay was performed as previously reported. Cursiefen et al., Cornea 25:443-447 (2006). Briefly, 10-0 nylon sutures (Ethicon, Cincinnati, Ohio) were placed in the cornea at […]. Beginning immediately after suture placement, animals were treated with systemic tacrolimus or vehicle control daily for two weeks, followed by analysis using confocal microscopy (Leica Microsystems, Weitziar, Germany). […] Cutaneous lymphangiogenesis was assessed using an ear punch wound model as previously reported. […] Tile-scan images were obtained using a confocal microscope (Leica Microsystems, Weitziar, Germany) and skin within 400 μm of the wound edge was analyzed using Metamorph software (Molecular Devices, Sunnyvale, Calif.). Standardized (200 μm×200 μm) fields were analyzed for the number of branch points present per unit area by two blinded reviewers.

[5] = system: circulating blood T cells; experiment: Flow cytometry of peripheral blood T cells; format: in vivo, mice
Protocol: Flow cytometry was performed on peripheral blood samples as previously reported. Zampell et al., PLoS ONE 7:e49940 (2012). Briefly, erythrocytes were lysed with RBC lysis buffer (Ebioscience, San Diego, Calif.) followed by staining with fluorophore-conjugated antibodies (CD45, CD3, and CD4; all from Biolegend, San Diego, Calif.) and analysis with a FACSCalibur flow cytometer (BD Biosciences, Franklin Lakes, N.J.) using FlowJo software (Tree Star, Ashland, Oreg.).

[6] = system: blood vessel permeability; experiment: Miles assay for vascular permeability after PLND; format: in vivo; settings: topical tacrolimus 2 weeks, PLND mice, vs vehicle control
Protocol: Additionally, to ensure that the observed effects of tacrolimus on lymphatic function were not a result of decreased vascular permeability and blood vessel leakage, we performed a Miles assay to measure blood vessel permeability following PLND surgeries with and without tacrolimus. […] In-vivo detection of ROS was performed by bioluminescent imaging of NADPH oxidase as described by Han et al. (J. Vis. Exp. doi: 10.3791/3925 (2012)). Briefly, mice were systemically injected with L-012 (an analogue of luminol) (20 μg/g) dissolved in PBS at different time points after PLND and luminescent signals representing ROS at the PLND surgery site were imaged and quantified using IVIS spectrum 200 (Xenogen Corporation). Miles assay for vascular permeability was performed as described. Radu et al., J. Vis. Exp. doi: 10.3791/50062 (2013). Briefly, 200 μl of 0.5% sterile Evans blue was injected via tail vein to 2 weeks tacrolimus treated PLND mice. After 30 min PLND hind limbs were imaged to observe Evans blue leakage. Hind limbs were excised and incubated in formamide for 48 hrs. at 55° C. to extract the Evans blue. Extracted Evans blue was quantified by measuring absorbance at 610 nm.

[7] = topical 0.1% tacrolimus twice daily for 2 weeks from 2 weeks after PLND, vs vehicle control
[8] = topical 0.1% tacrolimus, vs control
[9] = topical 0.1% tacrolimus, vs vehicle treated controls
[10] = topical tacrolimus, vs vehicle treated controls

SMILES: C=CC[C@@H]1/C=C(\C)C[C@H](C)C[C@H](OC)[C@H]2O[C@@](O)(C(=O)C(=O)N3CCCC[C@H]3C(=O)O[C@H](/C(C)=C/[C@@H]3CC[C@@H](O)[C@H](OC)C3)[C@H](C)[C@@H](O)CC1=O)[C@H](C)C[C@@H]2OC [tacrolimus]
- lymphangiogenesis in uninjured, non-inflamed ear (unwounded mouse ears): no increase
- known therapeutic immunosuppressive levels achieved with systemic administration [1]: 5 to 15 ng/mL
- increase in collecting lymphatic packet frequency [2, 7]: > 2 fold
- lymphatic leakiness and dermal back flow of ICG [2, 7]: markedly decreased
- collateral lymphatics draining towards the inguinal lymph node ([2]; topical 0.1% tacrolimus, NIR imaging and IF staining, vs control): significantly more
- luminal area of hind limb collectors [2, 8]: no differences
- number of alpha smooth muscles surrounding hind limb collecting lymphatics [2, 8]: no differences
- reduction in perilymphatic CD4+ cells [2, 9]: 56%
- reduction in perilymphatic CD45+ cells [2, 9]: 39%
- reduction in perilymphatic F4/80+ cells [2, 9]: 36%
- reduction in the number of perilymphatic iNOS-expressing cells [2, 9]: 42%
- lymphatic contraction frequency [3]: did not increase
- perilymphatic accumulation of inflammatory cells [3]: did not increase
- increase in proliferation of corneal lymphatic vessels (LYVE-1+) [4]: 48%
- blood T cells (CD3+) ([5]; systemic tacrolimus 4 mg kg^−1 IP daily, vs vehicle control): significant reduction
- circulating CD4+ cells [5, 10]: no changes
- circulating blood T cells (CD3+) [5, 10]: no changes
- blood vessel permeability (Evans blue) [6]: no differences
